# Literature values, collected in patent US9308173B2, “Slow-releasing ophthalmic compositions comprising povidone iodine” (JIANGSU DEDA PHARMACEUTICALS CO., LTD., priority 2011, dated 2016).
# Where two headings read alike, the source gives them in different places.
# Tested on: infected eyes
substance,measurement,setting,value
Povidone iodine [PVP-I],Toxicity and irritation to the eye,0.02% eye drop (Grimes et al. 1992),without the toxic affection and irritation
same,Germicidal effect,"0.02% eye drop, infected eyes treated repeatedly (Grimes et al. 1992)",same germicidal effects as one with concentration of 5.0% povidone iodine
same,Toxicity to the eye,"0.04% eye drops, clinical disinfection of eyes",no noticeable toxicity
same,Toxicity to the eye,eye drops at high concentrations of 5%,toxic effects that cannot be ignored
